In article PMC2680759, “Non-Invasive Molecular Imaging of Fibrosis Using a Collagen-Targeted Peptidomimetic of the Platelet Collagen Receptor Glycoprotein VI” (PLoS ONE, 2009):

Experiments:
[1] = target: murine laminin (murine) (UniProt P19137); assay: SPR; collagelin and laminin
[2] = target: 9O12.2 IgG; assay: SPR, 9O12.2 IgG injected over immobilized B-collagelin; assay type: binding
Experimental: 9O12.2 IgG was injected over biotin-peptides coupled to an SA-sensorchip in a Biacore 2000 instrument. […] In some experiments, the peptide was reduced by DTT on the sensor chip before the IgG was injected. Competition experiments were performed by mixing the IgG with recombinant soluble GPVI (25 µg.mL^−1). Collagen binding to the peptide was analyzed by injecting type-I collagen (200 µg.mL^−1) onto the peptide-coated sensorchip. Conversely, biotin-peptides (125, 250, 500 and 1000 µg.mL^−1) were perfused over fibrillar collagen immobilized on a CM5-sensorchip.

[3] = target: fibrillar type I collagen (Homo sapiens, UniProt P02452+P08123); assay: Solid phase assay on collagen-coated microtitration plates; assay type: binding; conditions: n = 3
Sequence of fibrillar type I collagen (P02452 162-1218 limits assumed): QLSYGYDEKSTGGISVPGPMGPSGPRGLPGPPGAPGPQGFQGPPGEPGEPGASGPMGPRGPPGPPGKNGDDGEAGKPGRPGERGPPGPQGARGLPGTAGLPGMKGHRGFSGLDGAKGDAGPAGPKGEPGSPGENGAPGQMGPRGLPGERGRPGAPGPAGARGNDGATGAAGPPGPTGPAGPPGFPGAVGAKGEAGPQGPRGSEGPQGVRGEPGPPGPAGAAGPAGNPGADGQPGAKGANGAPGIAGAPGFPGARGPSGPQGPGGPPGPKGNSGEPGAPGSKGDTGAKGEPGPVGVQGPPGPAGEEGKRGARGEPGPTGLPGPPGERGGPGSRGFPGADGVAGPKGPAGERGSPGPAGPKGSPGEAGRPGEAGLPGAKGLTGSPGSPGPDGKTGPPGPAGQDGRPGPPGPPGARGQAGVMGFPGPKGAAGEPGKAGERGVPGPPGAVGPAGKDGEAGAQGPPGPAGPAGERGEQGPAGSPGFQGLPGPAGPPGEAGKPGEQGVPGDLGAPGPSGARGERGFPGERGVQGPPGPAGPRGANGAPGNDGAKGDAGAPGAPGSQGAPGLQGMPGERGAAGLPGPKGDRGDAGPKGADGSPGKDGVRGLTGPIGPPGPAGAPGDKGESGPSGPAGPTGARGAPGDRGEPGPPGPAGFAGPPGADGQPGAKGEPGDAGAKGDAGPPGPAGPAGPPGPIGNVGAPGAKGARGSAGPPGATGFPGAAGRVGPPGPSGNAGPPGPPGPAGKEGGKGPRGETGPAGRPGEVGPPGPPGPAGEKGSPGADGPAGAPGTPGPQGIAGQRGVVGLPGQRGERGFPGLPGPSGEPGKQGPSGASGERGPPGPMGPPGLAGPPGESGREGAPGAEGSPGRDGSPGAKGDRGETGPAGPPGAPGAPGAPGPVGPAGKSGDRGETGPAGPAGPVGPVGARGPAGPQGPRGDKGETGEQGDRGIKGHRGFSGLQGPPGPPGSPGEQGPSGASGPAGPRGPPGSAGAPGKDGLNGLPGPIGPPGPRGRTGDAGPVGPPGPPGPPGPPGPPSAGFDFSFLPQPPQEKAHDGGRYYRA
Sequence of fibrillar type I collagen (P08123 80-1119 limits assumed): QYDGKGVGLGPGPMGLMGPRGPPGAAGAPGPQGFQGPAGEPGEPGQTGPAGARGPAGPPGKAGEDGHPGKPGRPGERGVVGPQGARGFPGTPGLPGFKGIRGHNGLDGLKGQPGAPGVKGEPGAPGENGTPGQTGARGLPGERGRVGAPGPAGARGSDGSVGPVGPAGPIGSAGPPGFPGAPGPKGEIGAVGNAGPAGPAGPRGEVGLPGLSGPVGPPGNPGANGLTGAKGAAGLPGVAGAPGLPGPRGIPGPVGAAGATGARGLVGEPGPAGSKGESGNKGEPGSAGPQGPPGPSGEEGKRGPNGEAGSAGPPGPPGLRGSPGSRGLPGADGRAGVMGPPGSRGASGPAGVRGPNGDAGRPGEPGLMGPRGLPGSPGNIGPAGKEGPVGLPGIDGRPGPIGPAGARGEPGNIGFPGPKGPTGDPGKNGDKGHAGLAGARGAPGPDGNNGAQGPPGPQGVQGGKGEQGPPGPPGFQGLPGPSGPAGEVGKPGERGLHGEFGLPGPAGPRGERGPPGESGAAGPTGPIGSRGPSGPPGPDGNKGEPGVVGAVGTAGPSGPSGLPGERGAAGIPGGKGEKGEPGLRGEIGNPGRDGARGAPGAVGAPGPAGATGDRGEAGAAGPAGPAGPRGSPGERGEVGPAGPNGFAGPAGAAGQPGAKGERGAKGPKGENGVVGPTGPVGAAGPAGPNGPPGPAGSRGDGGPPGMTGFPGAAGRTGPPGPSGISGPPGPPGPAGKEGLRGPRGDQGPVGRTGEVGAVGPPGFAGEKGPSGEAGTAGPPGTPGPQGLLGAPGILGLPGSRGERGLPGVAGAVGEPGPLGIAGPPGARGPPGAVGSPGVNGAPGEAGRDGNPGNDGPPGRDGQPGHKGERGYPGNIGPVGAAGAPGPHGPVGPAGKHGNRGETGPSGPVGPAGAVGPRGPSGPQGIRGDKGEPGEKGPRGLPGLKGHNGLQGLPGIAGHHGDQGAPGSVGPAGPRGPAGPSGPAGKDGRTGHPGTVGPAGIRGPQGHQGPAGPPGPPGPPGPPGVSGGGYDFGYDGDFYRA
Experimental: Biotin-peptides (50 µg.mL^−1) were incubated on microtitration wells, coated with 1 µg of type-I collagen, convulxin, collagen related peptides, bovine fibrinogen, human fibronectin, rat vitronectin, murine laminin or bovine serum albumin. Bound peptides were detected using HRP-coupled extravidin and the HRP substrate O-phenyl-dianisidine.

[4] = test system: collagen in sections of rat aorta and tail tendon; assay: Histochemical analysis of rat aorta and tail tendon sections; conditions: frozen sections of rat aorta and tail tendon, biotin-peptide 200 µg/mL, HRP-coupled streptavidin
Experimental: Sections were counter-stained with hematoxylin-eosin (Merck). Collagen was stained using picrosirius red. Sections ([…]) of rat tail tendon were processed as above.

[5] = test system: collagen fibers of the infarct scars; assay: Post mortem autoradiography of frozen myocardial sections; assay type: in vivo, rat; conditions: directly Tc-99m-labeled peptides, frozen myocardial sections
Experimental: After sacrificing the animals, the heart was removed and frozen, then 20-micrometer thick myocardial sections were cut perpendicular to the short axis of the ventricles in a cryostat, and exposed in a radioimager for 16 h. According to calibration studies performed with activity standards of tissue-equivalent homogenates, 50 counts/mm^2 of ^99m Tc-labeled tracers corresponded to ∼210 kBq/mg in autoradiography. The myocardial sections used for autoradiography, and contiguous heart sections (5 µm) fixed in acetone (−20°C), were stained with hematoxylin-eosin, Masson's trichrome and picrosirius red to determine the location and extent of the fibrotic myocardial scarring.

[6] = in vivo; conditions: rat, iv
Experimental: (§1) Two types of control animals were used: healthy rats, and healthy rats which had undergone a simple throracotomy (sham-operated). ^99mTc-biotin-collagelin blood kinetics and biodistribution were investigated by counting blood samples (taken from a jugular catheter) for 6 h after i.v. injection, and organs (extracted after sacrifice) 2 h after injection in a gamma-counter, together with aliquots of the injected preparation (CobraII, Packard, Meriden, USA). Ex vivo myocardial labeling and isotopic imaging were performed 4 weeks after the coronary ligature (or throracotomy), when the lesions had had the time to heal.

[7] = test system: fibrotic myocardial infarction scar; assay type: in vivo, rat; conditions: directly labeled tracer
Experimental: Myocardial infarction of the left ventricle was induced in rats as follows. Male Wistar rats (CERJ, France) were housed in a controlled environment and fed with a standard rat chow. Myocardial infarction of the left ventricle was induced by ligature of the left descending coronary artery performed under general anesthesia [1 mL.kg^−1 i.p. ketamine (Imalgene 500, Merial) and 0.5 mL.kg^−1 i.p. xylazine (Rompun, Bayer)] and positive pressure ventilation, as described. This protocol was performed under a permit from the French Veterinary Services Directorate.
as §1
For in vivo experiments, radiotracers (70 MBq) were administered i.v. to anesthetized animals (pentobarbital i.p. 6 mg/100 g BW, Ceva Santé Animale, France) within 2 h of radiolabeling. Scintigraphic images were obtained 0–2 h, 4 h, 6 h, 10 h and 24 h after injecting ^99mTc-streptavidin-biotin peptides and 0–3 h after injecting ^99mTc-biotinylated peptides. Planar and tomographic 1-h acquisitions were performed using a dedicated small animal γIMAGER system (Biospace Lab, Paris, France) equipped with 2 parallel low-energy high-resolution collimators (matrix 128×128, 15% energy window centered on 140 KeV). Tracer uptake in the left cardiac area was assessed visually. Two regions of interest were drawn on the scintigrams, over the heart and over the right lung. The mean activity (cpm) per pixel was determined in each region of interest. Then heart-to-lung activity ratios (HLR) were calculated on both planar and transversal tomographic images.

[8] = test system: rat myocardial scar sections; assay: Ex vivo incubation of myocardial scar sections with radiotracers; conditions: directly Tc-99m-labeled peptides, 120 MBq/ml RPMI, 2 h, p<0.05
Experimental: Rat aorta and rat myocardial scar sections were incubated in the presence of ^99mTc-biotin-collagelin, +/−9012 moAb, or ^99mTc-biotin-control peptide Pc (120 MBq/ml of RPMI) for 2 h. The tissues were then rinsed 5 times for periods of 1 minute, and exposed to the gamma-camera as well as to the instant imager for quantitative autoradiography (Instant Imager, Packard) for 15 h.

B-collagelin (collagelin conjugated with biotin) (peptide)
Kd [1]: 18.3 µM

SGSGCPGRVMHGLHLGDDEGPC (disulfide) [B-collagelin]
Kd ([2]; read-out: KD of 9O12.2 IgG binding to immobilized B-collagelin, SPR, Biacore 2000, biotin-peptide on SA-sensorchip, IgG 1.25 to 10 µg/mL, KD = koff/kon): 1 µM | Binding to collagen-coated plates ([3]; peptide 50 µg/mL, HRP-coupled extravidin detection): bound | Histochemical staining of tissue collagen [4]: Positive and specific brown staining

CSCC[C@@H]1NC(=O)[C@H](C(C)C)NC(=O)[C@H](CCCNC(=N)N)NC(=O)CNC(=O)[C@@H]2CCCN2C(=O)[C@@H](NC(=O)CNC(=O)[C@H](CO)NC(=O)CNC(=O)[C@H](CO)NC(=O)CCCC[C@@H]2SC[C@@H]3NC(=O)N[C@@H]32)CSSC[C@@H](C(N)=O)NC(=O)[C@@H]2CCCN2C(=O)CNC(=O)[C@H](CCC(=O)O)NC(=O)[C@H](CC(=O)O)NC(=O)[C@H](CC(=O)O)NC(=O)CNC(=O)[C@H](CC(C)C)NC(=O)[C@H](Cc2c[nH]cn2)NC(=O)[C@H](CC(C)C)NC(=O)CNC(=O)[C@H](Cc2c[nH]cn2)NC1=O [^99mTc-collagelin, metal not drawn]
Autoradiographic labeling of the scar [5]: coincided with the collagen fibers of the scars | Blood clearance half life [6]: 5 ± 0.5 min | tissue uptake at 2 h ([6]; 1 nmol, total radioactivity): 0.36 %ID/g | Tracer uptake in the cardiac area, sham-operated rats ([7]; n = 6): No tracer uptake | Probe uptake in the cardiac area, rats with MI scars ([7]; planar and SPECT images two hours after injection, all but one of the rats, n = 8): significant uptake | Ex vivo uptake in scarred tissue of myocardial sections [8]: accumulated in the scarred tissue

B1: GPVI-Fc: soluble recombinant GPVI, extracellular part of GPVI fused to the IgG Fc domain (protein)
chain: QSGPLPKPSLQALPSSLVPLEKPVTLRCQGPPGVDLYRLEKLSSSRYQDQAVLFIPAMKRSLAGRYRCSYQNGSLWSLPSDQLELVATGVFAKPSLSAQPGPAVSSGGDVTLQCQTRYGFDQFALYKEGDPAPYKNPERWYRASFPIITVTAAHSGTYRCYSFSSRDPYLWSAPSDPLELVVTGTSVTPSRLPTEPPSPVAEFSEATAELTVSFTNEVFTTETSRSITASPKESDSPAGPARQYYTK
modifications: left off: Fc (IgG), end not stated, kept
notes: soluble recombinant GPVI, extracellular part of GPVI fused to the IgG Fc domain
Effect on binding of 9O12.2 IgG to collagelin ([2]; SPR competition, IgG 5 µg/ml mixed with recombinant soluble GPVI 25 µg/ml): inhibited | Inhibition of B-collagelin binding to collagen-coated plates ([3]; competitor 50 µg/mL mixed with B-collagelin 50 µg/mL): completely inhibited
